Tests used:
Assay in all cases: relative viability (nuclei count vs DMSO), 5 days (fraction); higher = more cells survive
[1] = compound: CC1=CC=C(C=C1)C(=O)CN2C3=C(CCCC3)SC2=N [Pifithrin_alpha] + CC(=O)Nc1cccc(-n2c(=O)n(C3CC3)c(=O)c3c(Nc4ccc(I)cc4F)n(C)c(=O)c(C)c32)c1 [Trametinib] (partner 0.02 µM)
Procedure, shortened: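 The day after seeding in 1536-well plates, lung cancer cell lines were treated by pin tool with a single drug, or with a fixed anchor-drug dose together with five library-drug doses (not always all listed) in √10 steps. After 5 days, a combined fix-and-stain solution (final 0.05% Triton X-100, 1% formaldehyde, 1 ug/ml Hoechst) was added. Nuclei counted on 4× images gave relative viability as treated counts over vehicle counts, reported as the median of duplicate plates.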

Pifithrin_alpha = compound: CC1=CC=C(C=C1)C(=O)CN2C3=C(CCCC3)SC2=N [Pifithrin_alpha]
Procedure, shortened: (§1)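 Vehicle-anchored 1536-well plates of lung cancer cell lines, held overnight at 37 °C, were pinned with five library-drug doses (not always all listed) spaced by √10. No medium change followed over the next 5 days, after which the cells were fixed, permeabilised and Hoechst-stained together and imaged at 4×. Nuclei were counted with MetaXpress, and viability is treated-well nuclei over vehicle-well nuclei, taken as a median across plates. Plates passed with control CV below 25% and at least one doubling.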

Axitinib = compound: CNC(=O)c1ccccc1Sc1ccc2c(/C=C/c3ccccn3)n[nH]c2c1 [Axitinib]
Procedure, shortened: as §1

Bemcentinib = compound: Nc1nc(Nc2ccc3c(c2)CC[C@@H](N2CCCC2)CC3)nn1-c1cc2c(nn1)-c1ccccc1CCC2 [Bemcentinib]
Procedure, shortened: as §1

Cell Line	relative viability ([1]; first compound 1 µM)	relative viability ([1]; first compound 3.162 µM)	relative viability ([1]; first compound 10 µM)	relative viability ([1]; first compound 31.62 µM)	relative viability ([1]; first compound 100 µM)	relative viability (Pifithrin_alpha; 1 µM)	relative viability (Pifithrin_alpha; 3.162 µM)	relative viability (Pifithrin_alpha; 10 µM)	relative viability (Pifithrin_alpha; 31.62 µM)	relative viability (Pifithrin_alpha; 100 µM)	relative viability (Axitinib; 0.005 µM)	relative viability (Axitinib; 0.01581 µM)	relative viability (Axitinib; 0.05 µM)	relative viability (Axitinib; 0.1581 µM)	relative viability (Axitinib; 0.5 µM)	relative viability (Bemcentinib; 0.04 µM)	relative viability (Bemcentinib; 0.1265 µM)	relative viability (Bemcentinib; 0.4 µM)	relative viability (Bemcentinib; 1.265 µM)	relative viability (Bemcentinib; 4 µM)
NCI-H2009	0.26	0.265	0.253	0.218	0.234	0.96	1.01	0.974	0.65	0.878	1.01	1	1.05	1.06	1.09	1.02	1.04	1.04	1.03	1.05
NCI-H1944	0.395	0.358	0.368	0.319	0.374	0.898	0.826	0.781	0.451	0.71	1.04	0.952	1.02	0.943	0.761	0.968	1.05	0.993	0.941	0.988
SW 1573		0.619	0.567	0.341	0.31	1.04	1.01	1.09	0.787	0.981	0.982	1	1.09	0.867	1.08	0.912	1.06	1.1	0.921	0.968
NCI-H1975	0.251	0.29	0.232	0.275	0.252	0.861	0.642	0.665	0.623	0.598	1.02	0.927	0.89	0.943	0.985	0.867	1.07	1	0.93	0.973
NCI-H661	0.561	0.603	0.555	0.462	0.503	0.948	1.01	0.988	1.02	0.873	1.01	1.02	0.987	0.96	1.02	0.965	1.07	0.994	1.01	0.964
UMC-11	0.73	0.715	0.719	0.657	0.87	0.965	0.949	1.04	0.907	1.23	1.03	0.943	0.956	0.935	0.899	0.982	1.13	1.08	0.871	0.995
NCI-H520	0.777	0.652	0.785	0.535	0.741	1.05	0.916	0.96	0.763	1.1	0.974	0.737	1.07	0.765	0.992	0.868	1.08	0.992	1.02	1.08
COR-L23	0.517	0.709	0.638		0.539	1.07	1.09	0.977		0.94	1.05	0.93	1.06	0.923	1.05	1.03	1.17	1.14	1.18	1.12
NCI-H2023	0.512	0.386	0.324	0.213	0.214	0.924	0.846	0.902	0.461	0.686	0.984	0.972	0.945	0.936	1.13	0.975	1.08	1.14	1.08	1.13
NCI-H1650	0.563	0.523	0.451	0.375	0.39	0.889	0.811	0.787	0.607	0.813	1.07	0.805	1.05	0.822	1.15	0.783	1.01	0.974	0.978	0.861
RERF-LC-KJ	0.861	0.774	0.693	0.747	0.586	0.873	0.935	0.858	0.81	0.795	1.07	0.991	1.01	0.984	1.04	1.07	1.04	1.11	1.07	1.06
NCI-H1563						0.999	0.996	0.981	0.957	0.895	0.999	0.887	0.973	0.924	0.891	0.993	0.961	0.971	1.14	1.05
A549						1.03	1.01	1	0.889	1.01	0.997	0.95	0.95	0.877	1.02	0.977	1.13	0.984	1.04	1.02
NCI-H1623						0.905	0.924	0.834	0.677	0.803	1.12	0.945	0.884	1.02	0.984	0.956	0.935	0.971	1.03	0.929
NCI-H1299						0.997	1.06	1.02	0.812	1.02	1.04	1	1.05	1	1.08	1.02	1.02	1.05	0.994	1.05
EBC-1						0.973	0.996	0.794	0.582	0.723	1.15	0.995	1.05	0.956	1.08	1.02	1.2	1.09	0.999	1.22
Calu-6						1.06	1.05	1	0.655	0.899	1.08	0.999	1.03	1	1.12	1.07	1.15	1.13	1.08	1.05
NCI-H1703						0.835	0.945	0.908	0.902	0.879	0.846	0.48	0.266	0.216	0.238	0.664	0.966	0.906	0.979	0.877
